In BindingDB's records for doi:10.7270/Q2H70D5W (University of Pittsburgh, 2007):

Each compound was assayed against Gag-Pol polyprotein (Human immunodeficiency virus type 1 group M subtype B (isolate HXB2), UniProt P04585) (assay: HIV-1 RT RNase H inhibitor potency, dose response, biochemical, probe assessment (AID 652)). Details: pH 8; 23 °C.

For COc1ccc(OC)c(CCNC(=O)Cn2sc3nc(C)cc(C)c3c2=O)c1 [MLS000118887], which IC50 is on record?
The IC50 was 3080 nM.

How did the IC50 turn out when COc1ccc(N2CCN(Cc3cc(=O)oc4cc(-c5ccccc5)c(O)cc34)CC2)cc1 [4-[[4-(4-methoxyphenyl)piperazin-1-yl]methyl]-6-oxidanyl-7-phenyl-chromen-2-one] was run?
The IC50 was 3860 nM.

Which IC50 does the source give for CCOC(=O)C(C(C)=O)c1c(Br)c(O)c(O)c2c(C(=O)c3ccc(C)cc3)coc12 (centres undefined) [2-(6-bromo-4,5-dihydroxy-3-p-toluoyl-benzofuran-7-yl)-3-keto-butyric acid ethyl ester] here?
The IC50 was 421 nM.

COc1cc(-c2nn3c(Cc4ccccc4)nnc3s2)cc(OC)c1OC [3-(phenylmethyl)-6-(3,4,5-trimethoxyphenyl)-[1,2,4]triazolo[3,4-b][1,3,4]thiadiazole] was tested. Which IC50 did it give?
The IC50 was 4780 nM.

With CN1CSC2=C(C#N)C(c3cccc(OCc4ccccc4)c3)CC(=O)N2C1 (centres undefined) as the compound, how does the IC50 read?
The IC50 was 10600 nM.

With c1c2c(cc3sc(N4CCOCC4)nc13)OCO2 [6-(4-morpholinyl)-[1,3]dioxolo[4,5-f][1,3]benzothiazole] as the compound, how does the IC50 read?
The IC50 was 3590 nM.

Which IC50 does the source give for COc1ccc2nc(O)c(CN(C3CCCCC3)C(c3nnnn3Cc3ccco3)C(C)C)cc2c1 (centres undefined) [3-[[cyclohexyl-[1-[1-(2-furanylmethyl)-5-tetrazolyl]-2-methylpropyl]amino]methyl]-6-methoxy-1H-quinolin-2-one] here?
The IC50 was 1030 nM.

How did the IC50 turn out when C=CCNC(=O)c1c(N)n(-c2ccc3c(c2)OCO3)c2nc3ccccc3nc12 [2-amino-1-(1,3-benzodioxol-5-yl)-N-prop-2-enyl-3-pyrrolo[3,2-b]quinoxalinecarboxamide] was run?
The IC50 was 32700 nM.

With CCc1ccc(NC(=O)CSc2nc3cc(C(=O)OC)ccc3c(=O)n2Cc2ccco2)cc1 [2-[[2-(4-ethylanilino)-2-keto-ethyl]thio]-3-(2-furfuryl)-4-keto-quinazoline-7-carboxylic acid methyl ester] as the compound, how does the IC50 read?
Its IC50 is 2320 nM.

c1ccc(Cc2nn3c(COc4ccccc4)nnc3s2)cc1 [3-(phenoxymethyl)-6-(phenylmethyl)-[1,2,4]triazolo[3,4-b][1,3,4]thiadiazole] was tested. Which IC50 did it give?
The IC50 was 1360 nM.

How did the IC50 turn out when Cc1ccc(-n2c(N)c(C(=O)N3CCN(C)CC3)sc2=S)cc1 [4-amino-3-(4-methylphenyl)-5-[(4-methyl-1-piperazinyl)carbonyl]-1,3-thiazole-2(3H)-thione] was run?
The IC50 was greater than 50000 nM.

Which IC50 does the source give for Cc1nn(CCC#N)c2c1P(=S)(N1CCCC1)OC(c1ccc(F)cc1)=N2 (centres undefined) [3-[3-(4-fluorophenyl)-7-methyl-1-(1-pyrrolidinyl)-1-sulfanylidene-5-pyrazolo[4,3-c][1,5,2]oxazaphosphorinyl]propanenitrile] here?
The IC50 was 879 nM.

COc1ccc(OC)c(Nc2nc(-c3ccc(O)c(O)c3)cs2)c1 [4-[2-(2,5-Dimethoxy-phenylamino)-thiazol-4-yl]-benzene-1,2-diol] was tested. Which IC50 did it give?
The IC50 was 1480 nM.

For O=c1c(=Cc2cccn2-c2ccccc2)sc2nc3ccccc3n12 [2-[(1-phenyl-2-pyrrolyl)methylidene]-1-thiazolo[3,2-a]benzimidazolone], which IC50 is on record?
The IC50 was 2830 nM.

With Cc1cc(C)c(NC(=O)Cn2c(=O)n(Cc3ccco3)c(=O)c3ccccc32)c(C)c1 [2-[3-(2-furanylmethyl)-2,4-dioxo-1-quinazolinyl]-N-(2,4,6-trimethylphenyl)acetamide] as the compound, how does the IC50 read?
Its IC50 is 47800 nM.

For CCN1CCN(c2nc(C)nc3c2sc(=S)n3C)CC1 [7-(4-ethyl-1-piperazinyl)-3,5-dimethyl-2-thiazolo[4,5-d]pyrimidinethione], which IC50 is on record?
Its IC50 is 2940 nM.

For CCOC(=O)N1CCc2c(sc3c2C(=O)NC(c2ccc(-c4ccc(Cl)cc4)o2)N3)C1 (centres undefined) [2-[5-(4-chlorophenyl)-2-furanyl]-4-oxo-1,2,3,5,6,8-hexahydropyrido[2,3]thieno[2,4-d]pyrimidine-7-carboxylic acid ethyl ester], which IC50 is on record?
The IC50 was 5270 nM.

Which IC50 does the source give for CCCCCC#CCC#CCC#CCC#CCCCC(=O)O here?
The IC50 was 794 nM.

For CC(C)C1N=C2c3ccccc3N=C(SCC(=O)c3ccc(O)c(O)c3)N2C1=O (centres undefined) [MLS000094866], which IC50 is on record?
Its IC50 is 590 nM.
